Common to all, as to type: cell-based
Series [1] relates to murine Swiss albino fibroblasts (3T3). The experiment in a line: Cell viability assay, MTT endpoint, 3T3. Conditions: Mus musculus, Fibroblast, 3T3, 24 h incubation, 10–250 µg/mL. As to the method: (§1) The murine Swiss albino fibroblasts (3T3), the human breast adenocarcinoma (MCF-7), the human epithelial carcinoma (HeLa) and the squamous cell carcinoma (A431) cell lines were obtained from Celltec UB. Cells were grown in DMEM medium (4.5 g/L glucose) supplemented with 10% (v/v) FBS, 2 mM L-glutamine, 100 U/mL penicillin and 100 µg/mL streptomycin at 37 °C, 5% CO2. Cells were routinely cultured in 75 cm^2 culture flasks and were trypsinized using trypsin–EDTA when the cells reached approximately 80% confluence. The trypan blue assay, which allows for a direct identification and enumeration of the live (unstained) and dead (blue) cells in the cell population, was used to evaluate the viability of the cells in the cell suspension obtained.
(§2) 3T3 (1 × 10^5 cells/mL), A431, HeLa and MCF-7 cells (5 × 10^4 cells/mL) were grown at defined densities in the 60 central wells of a 96-well plate. Cells were incubated for 24 h in 5% CO2 at 37 °C. Then, the spent medium was removed, and cells were incubated for 24 h with their corresponding compound solutions (1 mg/mL) previously diluted in a minimum amount of DMF (dimethylformamide) and then in DMEM medium supplemented with 5% FBS (100 µL) at the required concentration range (10–250 µg/mL). The viability of the cells upon incubation with the lactam derivatives was assayed using 2 different endpoints: NRU and MTT.
(§3) Only living cells can reduce the yellow tetrazolium salt 3-(4,5-dimethyl-2-thiazolyl)-2,5-diphenyltetrazolium bromide (MTT) to insoluble purple formazan crystals. After a 24 h incubation of the cells with their corresponding NPs, the medium was removed and 100 µL of MTT (Sigma-Aldrich, St. Louis, USA) in PBS (5 mg/mL) diluted 1:10 in culture medium without phenol red and without FBS (Lonza, Verviers, Belgium) was added to the cells. After 3 h of incubation, the medium was removed. Thereafter, 100 µL of DMSO (Sigma-Aldrich, St. Louis, MO, USA) was added to each well to dissolve the purple formazan crystals. Agitation and determination of the absorbance of the extracted solution were performed under the same conditions as described in NRU Assay section. Finally, the effect of each treatment was calculated as the percentage of tetrazolium salt’s reduction by viable cells relative to control cells (cells without any treatment).
(§4) The corresponding half-maximal inhibitory concentration (IC50) values for the different formulations as a function of the cell line and endpoint were determined from the fitting of concentration-dependent viability curves. The corresponding selectivity indexes toward tumoral cells were calculated using the following ratio: SI = IC50 (non-tumoral cell line)/IC50 (tumoral cell line) where 3T3 fibroblasts were used as close representative cells under non-tumoral conditions. Moreover, pseudo selectivity indexes toward tumoral cells were calculated considering the discrete cellular responses at the maximum tested concentration (250 µg/mL).

In series [2] the test system is human breast adenocarcinoma (MCF-7) cell line. Description: Cell viability assay, MTT endpoint, MCF-7. Conditions: for IC50: Homo sapiens, MCF7, 24 h incubation, 10–250 µg/mL. As to the method:
as §1, §2, §3, §4

Series [3] shares this test system. Description: Cell viability assay, NRU endpoint, MCF-7. Conditions: for IC50: Homo sapiens, MCF7, 24 h incubation, 10–250 µg/mL; for SI250 (selective toxicity at 250 µg/mL): MCF-7 compared to 3T3, 250 µg/mL, 24 h. The method, then:
as §1, §2
(§5) The neutral red uptake (NRU) assay is based on the accumulation of dye in the lysosomes of viable cells. After the cells were incubated for 24 h with the corresponding systems, the medium was removed, and the solutions were incubated with the NR dye (Sigma-Aldrich, St. Louis, MO, USA) solution (50 µg/mL) dissolved in the medium, without FBS and without phenol red (Lonza, Verviers, Belgium), for 3 h. Cells were then washed with sterile PBS, followed by the addition of 100 µL of a solution containing 50% absolute ethanol and 1% acetic acid in distilled water to extract the dye. To promote the total dissolution of the dye, plates were placed in a microtiter-plate shaker for 5 min at room temperature. The absorbance of the resulting solutions was measured at 550 nm (Bio-Rad 550 microplate reader, Bio-Rad California, Hercules, CA, USA). Finally, the effect of each treatment was calculated as the percentage of dye uptake by viable cells relative to the control cells (cells without any treatment).
as §4

Series [4] deals with human epithelial carcinoma (HeLa) cell line. Description: Cell viability assay, NRU endpoint, HeLa. Conditions: 24 h incubation, 10–250 µg/mL. The method, then:
as §1, §2, §5, §4

Series [5] can be described thus: Cell viability assay, NRU endpoint, cell line not specified. Conditions: up to 250 µg/mL, read-out: minimum cell viability values. As to the method: as §1, §2, §5
The test system of a further series is human erythrocytes. Description: Hemolysis assay with human erythrocyte suspension. Conditions: 80 µg/mL, PBS pH 7.4. As to the method:
(§6) Human blood samples were obtained from the Banc de Sang i Teixits de Barcelona (Spain) from the Catalan Department of Health. Blood was deposited in tubes with the anticoagulant EDTA-K3. Blood samples were centrifuged at 3000 rpm and 4 °C for 10 min (Megafuge 2.0 R. Heraeus Instruments, Hanau, Germany) to induce sedimentation. Plasma was extracted with a Pasteur pipette. Next, the residual pellet was washed with PBS at pH 7.4. This procedure was repeated three times to remove residual leukocytes and platelets and to concentrate the erythrocytes. Following the last wash, the erythrocyte suspension was diluted (1:1) in PBS at pH 7.4 to obtain a suitable erythrocyte suspension (cell density of 8 × 10^9 cell/mL).
(§7) The hemolysis assay determined the capability of different compounds to induce the hemolysis of the erythrocyte membrane. Stock solutions of each compound at 1 mg/mL in PBS at pH 7.4 were prepared. Different volumes (10–80 μL) were placed in polystyrene tubes, and an aliquot of 25 µL of the erythrocyte suspensions was added to each tube. The final volume was 1 mL. The tubes were incubated at room temperature under rotatory conditions. Then, the tubes were centrifuged at 10,000 rpm for 5 min. The supernatants’ absorbance at 540 nm (Shimadzu UV-160A, Shimadzu, Duisburg, Germany) was compared with that of the positive (erythrocytes hemolyzed with distilled water) and negative (erythrocyte suspension in PBS at pH 7.4.) controls.
(§8) The degree of hemolysis was determined using the following equation:Hemolysis (%) = 100 × (Abs − Abs0)/(Abs100 − Abs0) where Abs, Abs0 and Abs100 are the absorbance of the test samples, of the suspension treated with isotonic phosphate–buffered saline (PBS) and of the suspension of complete hemolysis treated with distilled water, respectively.

The nature of series [6]: Hemolysis assay with human erythrocyte suspension. Conditions: human, washed human erythrocyte suspension, PBS pH 7.4, read-out: degree of hemolysis. The method, then:
as §6, §7, §8

Series [7] is described as follows: Cell viability assay, MTT endpoint, cell line not specified. Conditions: under discrete conditions, up to 250 µg/mL, read-out: minimum cell viability values. The method, then: as §1
3T3 (1 × 10^5 cells/mL), A431, HeLa and MCF-7 cells (5 × 10^4 cells/mL) were grown at defined densities in the 60 central wells of a 96-well plate. […]
Only living cells can reduce the yellow tetrazolium salt 3-(4,5-dimethyl-2-thiazolyl)-2,5-diphenyltetrazolium bromide (MTT) to insoluble purple formazan crystals. […] Agitation and determination of the absorbance of the extracted solution were performed under the same conditions as described in NRU Assay section. Finally, the effect of each treatment was calculated as the percentage of tetrazolium salt’s reduction by viable cells relative to control cells (cells without any treatment).

The test system of series [8] is squamous cell carcinoma (A431) cell line. The experiment in a line: Cell viability assay, NRU endpoint, A431. Conditions: for IC50: Homo sapiens, A-431, 24 h, A431, 24 h incubation, 10–250 µg/mL; for SI250 (selective toxicity at 250 µg/mL): A431 compared to 3T3, 250 µg/mL, 24 h. As to the method: as §1, §2, §5, §4
Series [9] has the same test system. Description: Cell viability assay, MTT endpoint, A431. Conditions: for SI250 (selective toxicity at 250 µg/mL): A431 compared to 3T3, 250 µg/mL, 24 h; for IC50: Homo sapiens, A-431, 24 h, A431, 24 h incubation, 10–250 µg/mL. As to the method:
as §1, §2, §3, §4

The subject of series [10] is murine Swiss albino fibroblasts (3T3). Description: Cell viability assay, NRU endpoint, 3T3. Conditions: Mus musculus, Fibroblast, 3T3, 24 h incubation, 10–250 µg/mL. The method, then:
as §1, §2, §5, §4

Series [11] has as its system human epithelial carcinoma (HeLa) cell line. The experiment in a line: Cell viability assay, MTT endpoint, HeLa. Conditions: HeLa; for IC50: Homo sapiens, 24 h, 24 h incubation, 10–250 µg/mL. As to the method:
as §1, §2, §3, §4

A short description of series [12]: Cell viability assay, MTT endpoint, A431. Conditions: human, A431 squamous cell carcinoma cells, A431, highest assayed concentration 250 µg/mL, 24 h. As to the method:
as §1, §2, §3, §4

Four molecules from publication PMC11085086, “Microwave-Assisted Atom Transfer Radical Cyclization in the Synthesis of 3,3-Dichloro-γ- and δ-Lactams from N-Alkenyl-Tethered Trichloroacetamides Catalyzed by RuCl2(PPh3)3 and Their Cytotoxic Evaluation” (Molecules, 2024) can be followed below.

Structures are written as SMILES.

`O=C1NCC(CCl)C1(Cl)Cl` (stereo not drawn) [2b, 3,3-Dichloro-4-(chloromethyl)pyrrolidin-2-one]: the IC50 in series [1], in [2] (MTT), in series [3], in series [4], in series [8] and in series [9] was above 250 µg/mL each time. For the same molecule, the IC50 in series [10] and in series [11] was above 250 µg/mL each time. For the same molecule, the figures for the viability at 24 h in series [5] and in [7] were 80 to 85% and 60 to 70%, respectively. The degree of hemolysis entry with human erythrocytes is “remained stable”. In addition, in series [6], the hemolysis at 10 µg/mL turned out to be 0.02%. Moreover, the “SI250 (selective toxicity at 250 µg/mL)” value in series [9] amounted to 1.1.

Turning to `O=C1N(c2ccccc2)CC(CCl)C1(Cl)Cl` (stereo not drawn) [2d, 3,3-Dichloro-4-(chloromethyl)-1-phenylpyrrolidin-2-one], the IC50 in [1], in series [2] (MTT), in series [3], in [4], in series [8] and in series [10] was above 250 µg/mL in each case. Also, the IC50 in series [11] is above 250 µg/mL. Further, the “SI250 (selective toxicity at 250 µg/mL)” value is “one” in [3] and 1.4 in series [9]. In [5], the viability at 24 h was in the range of 80 to 85%. Also, the hemolysis at 10 µg/mL in series [6] worked out at 0.005%. Besides, the hemolysis at 80 µg/mL in [6] came to 0.1%. Also, in [12], the viability at 24 h, 250 µg/mL is 50%.

On to `CC(C)(C)N1CCC(CCl)C(Cl)(Cl)C1=O` (stereo not drawn) [2i, 1-(tert-Butyl)-3,3-dichloro-4-(chloromethyl)piperidin-2-one], for which the IC50 in series [1], in [2] (MTT), in [3], in series [4], in series [8] and in series [9] was above 250 µg/mL throughout. The IC50 in series [10] and in [11] was above 250 µg/mL in each case. For the same molecule, the “SI250 (selective toxicity at 250 µg/mL)” value in [2] (MTT, MCF-7 compared to 3T3, 250 µg/mL, 24 h) is reported as “one”; in series [3], “one”; in [8], 1.1; in series [9], 1.1. Further, in series [5], the viability at 24 h was 70%. Further, the hemolysis at 10 µg/mL in series [6] worked out at 0.003%. Moreover, the hemolysis at 80 µg/mL in series [6] is around 0.07%.

Turning to `O=C1CCC(N2CC(CCl)C(Cl)(Cl)C2=O)CC1` (stereo not drawn) [2p], the IC50 in [1], in [2] (MTT), in series [3], in series [4], in series [8] and in series [9] was above 250 µg/mL each time. For the same molecule, the IC50 in [10] and in [11] was above 250 µg/mL each time. Also, the “effect on proliferation of tumor cells” value is given as “could promote the proliferation” in series [2] (MCF-7, MTT, under the assayed conditions) and “could promote the proliferation” in series [11] (under the assayed conditions). Also, the “SI250 (selective toxicity at 250 µg/mL)” value is “one” in [3] and 1.1 in series [8]. Besides, the viability at 24 h in series [5] was 100%; in [7], 60 to 70%. Also, the hemolysis at 10 µg/mL in [6] is 0.005%. For the same molecule, the hemolysis at 80 µg/mL in series [6] is around 0.07%.

The IC50 is the concentration that gives 50% inhibition. High values mean lower potency, low ones higher potency. Usually viability stands for the share of living cells, or the viability signal relative to a control.
